Earlier results as cited in patent US20210267908A1, “PHARMACEUTICAL COMPOSITIONS OF RIVAROXABAN” (MANKIND PHARMA LTD., priority 2020, published 2021).

O=C(NC[C@H]1CN(c2ccc(N3CCOCC3=O)cc2)C(=O)O1)c1ccc(Cl)s1 [Rivaroxaban, 5-Chloro-N-({(5S)-2-oxo-3-[4-(3-oxo-4-morpholinyl)phenyl]-1,3-oxazolidin-5-yl}methyl)-2-thiophenecarboxamide]
amount pH-independently soluble in aqueous media (aqueous media at 25° C.): 5-7 mg/L
solubility in organic solvents (organic solvents (e.g. acetone, polyethylene glycol 400)): only slightly soluble
solubility in water and aqueous media (water and aqueous media with pH 1-9): practically insoluble
